Laboratory results taken from US4835185A, “Immunomodulator for improving commercial performance of domestic animals” (Iowa State University Research Foundation, Inc., priority 1987, dated 1989).

Key:
[1] = Laying hens: egg production and egg yolk cholesterol; type: in vivo, laying hens (chickens)
Description: Laying hens (69 weeks of age) were randomly assigned to either a control diet or a diet containing 0.2 wt % KIC (Na). For the next 28 days feed consumption was recorded and eggs collected. Eggs were weighed and analyzed for egg yolk cholesterol. The feed composition is shown in Table C and the results in Table D. The total protein was about 18% on a dry matter basis, and the amount of leucine was about 9% of the protein. The control diet was the same except for the omission of the KIC.

neutrophils = assay: Neutrophil function (experiments 1 to 3); type: cell-based, sheep and cattle; settings: any experiment
Description: A study was conducted to determine if KIC administration can alter white blood cell function, specifically T lymphocyte function, in growing sheep and cattle. Eighteen medium-framed crossbred male lambs were used in experiment 1. Lambs were randomly assigned to either a control diet (n=10) or a diet supplemented with 1% KIC (n=8). Animals were fed ad libitum in individual cages. At 100 and 108 days of treatment, 50-ml blood samples were collected for lymphocyte and neutrophil function tests. In experiment 2, 19 intact crossbred male lambs were randomly assigned to either a saline treatment group (n=9) or a KIC treatment group (n=10). Control lambs were injected with 50 ml of a saline solution, and KIC treated lambs were injected with 50 ml of a 5% solution of KIC (sodium salt) daily (~2.5 g KIC/day). All injections were made intraperitoneally in the right posterior abdominal region after disinfection of the area. […] At the end of the 6-233k periods, 100-ml blood samples were collected from each animal, and lymphocyte and neutrophil function were evaluated. […] Lymphocytes and neutrophils were isolated, and lymphocyte blastogenesis and neutrophil function evaluated. […] Each experiment was statistically analyzed by analysis of variance. In sheep experiments, individual animals were the experimental units, whereas pen means were analyzed in the cattle experiment.

T lymphocytes = assay: Lamb Trial 2: lymphocyte blastogenesis (3H-thymidine, phytohemaglutinin); type: cell-based, lambs (sheep); settings: 1% KIC, * p<.05
From the text: (§1) The lambs used in Trial 1 consisted of medium-frame crossbred wethers and ewes weighing 26 to 31 kg. The lambs used in Trial 2 consisted of medium-framced crossbred rams weighing 18 to 25 kg. Each animal was raised as a single. The lambs were housed in a temperature controlled room in individual pens with nipple waterers. When received, the lamps were vaccinated for enterotoxemia. They were allowed to adjust to the pens and the environment for 10 days. One day before the trial began, the lambs were sheared and placed on their respective dietary treatments. The lamps were allotted blocking by weight and sex into two dietary treatment groups. Growth and feed consumption were measured bi-weekly. All lamb weights were taken after a 12 to 16 hour fast. The animals were slaughtered at 50 kg in the Iowa State University Meat laboratory facilities at Ames, Iowa. At slaughter, the lamb's internal organs and wool were weighed and sampled, loin eye area and back fat measured, and carcasses separated into fat, lean, and bone.
^(9) Lymphocyte blastogenesis measured by amount of ^3
H--thymidine incorporated per 2 hrs. of incubation in the presence of
phytohemaglutinin (a mitogen that stimulates Tlymphocyte division).

[2] = Lamb trials: growth, feed efficiency, wool and carcass; type: in vivo, lambs (sheep)
From the text: as §1
The SMB (soybean meal-containing) and the CGM (corn-gluten-containing) diets (compositions given in Table A) were fed twice per day in quantities ensuring that feed was before the lambs at all times. The diets were calculated to be equivalent to each other with respect to metabolizable protein, ether extract, fiber, and minerals with the exception of calcium and phosphorus. […] The CGM diet was calculated to contain slightly more energy (TDN 81.7 vs. 79.0, NEm 1.88 v. 1.86, Neg. 1.23 vs. 1.22). […] The soybean meal ingredient contained about 3.5 wt % leucine, while the corn gluten meal ingredient contained about 15 wt % leucine. The CGM diet was therefore higher in leucine than the SBM diet, containing an estimated 16 wt % leucine as compared with an estimated 8 wt % leucine based on total crude protein in the diet.
^(1) Feed ingredients given on wt % basis.
^(3) Diets containing calcium salt of alphaketoisocaproate (KIC).
^(1) Statistical analysis: *designates p < .05, a significant
^(2) Average daily (24 hrs.) gain (kilograms).
^(3) Kilograms feed per kilogram weight gain.
^(4) Amount of wool in grams.
^(5) Amount of back fat in inches.
^(6) Amount of lean meat in kilograms.
^(1)- (8) See Table B, except cholesterol data is for lean tissue

lymphocytes = assay: Study of Immune Function: lymphocyte blastogenesis, sheep (experiments 1 and 2); type: cell-based, lambs (sheep)
Description: In experiment 2, 19 intact crossbred male lambs were randomly assigned to either a saline treatment group (n=9) or a KIC treatment group (n=10). Control lambs were injected with 50 ml of a saline solution, and KIC treated lambs were injected with 50 ml of a 5% solution of KIC (sodium salt) daily (~2.5 g KIC/day). All injections were made intraperitoneally in the right posterior abdominal region after disinfection of the area. At day 60 and day 66 of treatment, blood was collected for lymphocyte and neutrophil function tests.
Sheep in experiments 1 and 2 were fed diets based on a mixture of 48% corn, 5% molasses, 20% alfalfa meal, 0.8% limestone, 0.6% salt-mineral-vitamin mix and ~25% of a protein supplement (either soybean meal, corn gluten meal, or corn gluten feed). The diets were isonitrogenous and analyzed to be ~20% crude protein and 89% dry matter. The KIC diet consisted of the basal diet to which was added 1% calcium-KIC, whereas the control diet was the basal diet plus 0.25% calcium carbonate.
Blood was collected by jugular venapuncture into acid-citrate-dextrose anticoagulant. Lymphocytes and neutrophils were isolated, and lymphocyte blastogenesis and neutrophil function evaluated. KIC was obtained from SOBAC, Paris, France. […] Each experiment was statistically analyzed by analysis of variance. In sheep experiments, individual animals were the experimental units, whereas pen means were analyzed in the cattle experiment.
^1 Background (BKG), phytohemagglutininstimulated (PHA), concanavalin
Astimulated (ConA), and pokeweed mitogenstimulated (PWM) blastogenesis
were determined by measuring the incorporation ^3 H thymidine into

## CC(C)CC(=O)C(=O)O [KIC, alpha-ketoisocaproate]
[1]; 0.2 wt % KIC (Na), 28 days (control 1.105)
  Av. Eggs: 1.233 kg./hen
[1]; 0.2 wt % KIC (Na), 28 days (control 17.7)
  Average No. Eggs/Hen: 19.5
[1]; 0.2 wt % KIC (Na), 28 days (control 109)
  Feed Average: 109 gms/hen/day
[1]; 0.2 wt % KIC (Na), 28 days (control 1068)
  Avg. yolk Cholesterol: 996 mg/100 gms
[1]; vs control
  Av. Eggs (kg./hen), % Change: +11.1%
  Average No. Eggs/Hen, % Change: +10.2%
  Avg. yolk Cholesterol, % Change: -7%
  Feed Average, % Change: 0%
neutrophils
  antibody-dependent cell-mediated cytotoxicity: did not alter
T lymphocytes; Trial 2, CGM diet, phytohemaglutinin (0%: 6134)
  LYMPHOCYTE BLASTOGENESIS: amount of 3H-thymidine incorporated per 2 hrs. of incubation: 18102
T lymphocytes; Trial 2, SBM diet, phytohemaglutinin (0%: 5993)
  LYMPHOCYTE BLASTOGENESIS: amount of 3H-thymidine incorporated per 2 hrs. of incubation: 14625
[2]; Trial 1, CGM diet, 1% KIC (0%: 4.53), * p<.05
  F/G: kilograms feed per kilogram weight gain: 5.20
[2]; Trial 1, CGM diet, 1% KIC (0%: 5.9)
  LEAN: amount of lean meat: 6.0 kilograms
[2]; Trial 1, CGM diet, 1% KIC (0%: .158), * p<.05
  WOOL: amount of wool: .167 grams
[2]; Trial 1, CGM diet, 1% KIC (0%: .20)
  BACK FAT: amount of back fat: .18 inches
[2]; Trial 1, CGM diet, 1% KIC (0%: .37)
  ADG: average daily (24 hrs.) gain: .30 kilograms
[2]; Trial 1, SBM diet, 1% KIC (0%: 5.04), * p<.05
  F/G: kilograms feed per kilogram weight gain: 4.82
[2]; Trial 1, SBM diet, 1% KIC (0%: 6.2)
  LEAN: amount of lean meat: 6.8 kilograms
[2]; Trial 1, SBM diet, 1% KIC (0%: .176), * p<.05
  WOOL: amount of wool: .216 grams
[2]; Trial 1, SBM diet, 1% KIC (0%: .26)
  BACK FAT: amount of back fat: .22 inches
[2]; Trial 1, SBM diet, 1% KIC (0%: .33)
  ADG: average daily (24 hrs.) gain: .36 kilograms
[2]; Trial 2, CGM diet, 1% KIC (0%: 4.17)
  F/G: kilograms feed per kilogram weight gain: 4.35
[2]; Trial 2, CGM diet, 1% KIC (0%: 6.1)
  LEAN: amount of lean meat: 5.8 kilograms
[2]; Trial 2, CGM diet, 1% KIC (0%: .262), * p<.05
  WOOL: amount of wool: .294 grams
[2]; Trial 2, CGM diet, 1% KIC (0%: .29)
  BACK FAT: amount of back fat: .20 inches
[2]; Trial 2, CGM diet, 1% KIC (0%: .333), * p<.05
  ADG: average daily (24 hrs.) gain: .308 kilograms
[2]; Trial 2, SBM diet, 1% KIC (0%: 4.76), * p<.05
  F/G: kilograms feed per kilogram weight gain: 4.17
[2]; Trial 2, SBM diet, 1% KIC (0%: 5.9)
  LEAN: amount of lean meat: 5.4 kilograms
[2]; Trial 2, SBM diet, 1% KIC (0%: .213), * p<.05
  WOOL: amount of wool: .267 grams
[2]; Trial 2, SBM diet, 1% KIC (0%: .26)
  BACK FAT: amount of back fat: .21 inches
[2]; Trial 2, SBM diet, 1% KIC (0%: .304), * p<.05
  ADG: average daily (24 hrs.) gain: .339 kilograms
lymphocytes; Exp. 1, oral uncoated KIC 1% (control 466), p<.008
  BKG: background blastogenesis: 852 Counts/min per 2 × 10^5 cells
lymphocytes; Exp. 1, oral uncoated KIC 1% (control 6100), p<.003
  PHA: phytohemagglutinin-stimulated blastogenesis: 16800 Counts/min per 2 × 10^5 cells
lymphocytes; Exp. 1, oral uncoated KIC 1% (control 19400), p<.77
  PWM: pokeweed mitogen-stimulated blastogenesis: 17300 Counts/min per 2 × 10^5 cells
lymphocytes; Exp. 1, oral uncoated KIC 1% (control 41100), p<.81
  ConA: concanavalin A-stimulated blastogenesis: 44700 Counts/min per 2 × 10^5 cells
lymphocytes; Exp. 2, IP injected KIC (saline 752), p<.10
  BKG: background blastogenesis: 947 Counts/min per 2 × 10^5 cells
lymphocytes; Exp. 2, IP injected KIC (saline 8500), p<.09
  PHA: phytohemagglutinin-stimulated blastogenesis: 12600 Counts/min per 2 × 10^5 cells
lymphocytes; Exp. 2, IP injected KIC (saline 21600), p<.72
  PWM: pokeweed mitogen-stimulated blastogenesis: 29400 Counts/min per 2 × 10^5 cells
lymphocytes; Exp. 2, IP injected KIC (saline 31200), p<.87
  ConA: concanavalin A-stimulated blastogenesis: 33500 Counts/min per 2 × 10^5 cells
lymphocytes; experiment 1, sheep, oral 1% KIC
  increase of PHA stimulation: 280%
lymphocytes; experiment 2, sheep, IP
  increase of PHA stimulation: 150%
